Source: patent EP0963755A2, “Use of benzopyranes for preventing allograft rejection” (Pfizer Products Inc., priority 1998, dated 1999)

System: acute allograft rejection
Assay: murine cardiac ear pinna model of acute allograft rejection (non-vascularized cardiac tissue transplantation)
Assay type: in vivo
Details: monotherapy; for Graft Survival, Mean ± Std Dev (mean survival days): day 0 to 17, BALB/C neonatal hearts into C3H/HeN ear pinna, assessed day 6 to 18
Text: Methods: A rapid, facile 2-week murine bioassay of non-vascularized cardiac tissue transplantation,t he murine cardiac ear pinna model of acute allograft rejection, was used to evaluate the dose-response relationship of immunosuppressive drugs on allograft rejection. In this model, donor BALB/C (H2^d) neonatal hearts are transplanted into recipient C3H/HeN (H2^k) ear pinna pouches without vacular anastomoses. Survivinghearts are revascularized and usually resume beating on day 3 to 6. Untreated allografts failed prior to day 12 (MST = 10.5 + 0.9d, n=13). Isografts survived indefinitely. All compounds are given on day 0 to 17 COMPOUND P [(+)-2-[3,4-dihydro(3S,4R)-4-hydroxy-3-(4-phenyl-phenylmethyl)-7-(2H,1-benzopyran)]cyclopentane carboxylic acid] was given orally in 0.5% Methylcellulose. Grafts were assessed by visual examination for contraction on alternate days (from 6 to 18) and graft survival was defined as the post-transplant day on which contractions cease. Efficacy data from day 6 to 18 is presented as mean survival days (+SD) and was analyzed by Log Rank Analysis. Graft survival values were determined at day 18. Any graft surviving at day 18 was censored for statistical purposes.

SMILES: O=C(O)C1CCCC1c1ccc2c(c1)OC[C@H](Cc1ccc(-c3ccccc3)cc1)[C@H]2O (single isomer, unassigned; (+)) [COMPOUND P]
- efficacy as a single agent in acute rejection (graft survival on day 18) (highest dose, 300 mg/kg d): significant (p<0.01)
- efficacy as a single agent in acute rejection (graft survival on day 18) (lower doses tested (200, 100, and 30 mg/kg)): not at the lower doses tested
- Graft Survival, Mean ± Std Dev (mean survival days) (30 mg/kg/d orally in 0.5% Methylcellulose): 11.0 ± 1.1 days
- Graft Survival, Mean ± Std Dev (mean survival days) (100 mg/kg/d orally in 0.5% Methylcellulose): 10.3 ± 0.7 days
- Graft Survival, Mean ± Std Dev (mean survival days) (200 mg/kg/d orally in 0.5% Methylcellulose): 10.3 ± 0.7 days
- Graft Survival, Mean ± Std Dev (mean survival days) (300 mg/kg/d orally in 0.5% Methylcellulose): 11.8 ± 1.1 days
